Results from US5032614A, “Serotonin antagonist” (Mitsubishi Kasei Corporation, priority 1989, dated 1991).

What was measured:
[1] = target: T1, serotonin-induced constriction of caudal artery (Rattus norvegicus, UniProt P14842); test: Inhibition test against serotonin-induced constriction of caudal artery in rats; type: cell-based; conditions: Wistar rat caudal artery spiral strip, from shift of serotonin ED50; read-out: Ki (inhibition constant against serotonin-induced constriction)
T1 construct: Caudal artery was removed and spiral strip was prepared; from tissue; host or cells: Wistar rat (male) caudal artery, spiral strip
Protocol: (2) Inhibition Test against Serotonin-induced Constriction of Caudal Artery in Rats Wistar strain male rats (300-500 g) were sacrificed by striking the animals at the occiput. Caudal artery was removed and spiral strip was prepared according to the procedure of J. M. van Nueten, The Journal of Pharmacology and Experimental Therapeutics 218(1): 217-230 (1981).
The spirit strip was ligated at both ends with cotton thread and placed in a magunus tube containing 10 ml of Krebs-Henselite solution (37° C., bubbled with a mixture of 95% O2 and 5% CO2). One end of the thread was connected to Isometric Transducer (Nihon Koden-kogyo Kikai). Isometric contraction was measured using Isometric Amplifier (Nihon Koden-kogyo Kikai) under a tension of 0.5 g.
The control contruction by cumulatively added serotonin(final concentration: 10^-9 --10^-5 M) was measured and then the control ED50 value of serotonin was determined. Subsequently, the strip was washed three times with Krebs-Henselite solution and a compound of the invention was added at a suitable concentration (final concentration: 10^-8, 10^-7, 10^-6, or 10^-5 M). Two minutes later, serotonin was cumulatively added at concentrations from 10^-9 to 10^-5 or 10^-3 M, and the ED50 value in the test group was determined.
ED50 values were calculated by "Probit Analysis". In Probit Analysis, an intercept, slope and spontaneous (threshold) reaction ratio of the curve obtained by biological analysis can be calculated according to the following "Probit equation" with highest reliability: [formula] .PHI.: the cumulative distributing relationships of standard normal distribution. […]
x: average dose (concentration of serotonin) y: probability of reaction (contractility rate of vascular smooth muscle) a, b, c: parameter; a, b>0, 1>c>0.
Inhibition constant (Ki) for each compound was determined according to the following equation: [formula]

[2] = target: T2, serotonin receptor (3H-Ketanserin binding, cerebral cortex nucleus-microsome-containing fraction) (Rattus norvegicus, UniProt P14842); test: Receptor-binding test (3H-Ketanserin tracer, rat cerebral cortex receptor fraction); conditions: 3H-Ketanserin 1 nM, Wistar rat cerebral cortex receptor, 37° C. 30 min; read-out: IC50 (50% inhibition of specific binding of the tracer to the receptor)
T2 construct: the resultant nucleus-microsome-containing fraction (=receptor) was stored at -80° C; from tissue; host or cells: Wistar rat (male) cerebral cortex, nucleus-microsome-containing fraction
Protocol: (1) Receptor-binding Test
(a) Preparation of Receptor
Wistar strain male rats (300-500 g) were killed by decapitation. Cerebral cortex was removed, homogenized in 50 mM Tris-HCl buffer, pH 7.4, and centrifuged at 50,000×g for 20 min at 4° C. After washing precipitates with the same buffer, the resultant nucleus-microsome-containing fraction (=receptor) was stored at -80° C. until use.
The receptor obtained above (0.5 ml, equivalent to 5 mg of tissue) was incubated at 37° C. for 30 min in 0.4 ml of the above-mentioned buffer containing 0.1 ml of ^3 H-Ketanserin tracer (77 Ci/mmol; a final concentration of 1 nM) in the final volume of 1.0 ml. The reaction mixture was filtered under vacuum through a GF/B glass filter (Whatman). After washing the filter with the buffer, radio activity bound to filter was measured by a liquid scintilation spectrophotometer (Aloka, LSC-900) to obtain the total binding activity of the tracer.
Non-specific binding activity of the tracer, i.e., the binding activity of the tracer to materials other than the receptor, was evaluated using the same assay system except for that serotonin was added to the reaction mixture to the final concentration of 1 mM in order to block the binding of the tracer to the receptor. The specific binding activity of the tracer to the receptor was determined by subtracting the non-specific binding activity from the total binding activity.
(c) IC50 (concentration of a test compound requisite for producing a 50% inhibition)
Concentration (ng/ml) of compounds of the invention (serotonin antagonist) which produces a 50% inhibition of specific binding of the tracer to the receptor was determined as follows.
The assay system and procedure as described in (b) were employed except for that amitriphtyline hydrochloride as a control or a compound of the invention was added to the assay system with various concentrations of from 10^-1 to 10^-5 ng/ml. The specific binding activity was determined at each concentration, and a dose-response curve was prepared. A concentration of the compound in ng/ml required for producing 50% inhibition of specific binding of the tracer to the receptor (IC50) was determined on the basis of the dose-response curve.

T2 sequence (P14842 whole entry): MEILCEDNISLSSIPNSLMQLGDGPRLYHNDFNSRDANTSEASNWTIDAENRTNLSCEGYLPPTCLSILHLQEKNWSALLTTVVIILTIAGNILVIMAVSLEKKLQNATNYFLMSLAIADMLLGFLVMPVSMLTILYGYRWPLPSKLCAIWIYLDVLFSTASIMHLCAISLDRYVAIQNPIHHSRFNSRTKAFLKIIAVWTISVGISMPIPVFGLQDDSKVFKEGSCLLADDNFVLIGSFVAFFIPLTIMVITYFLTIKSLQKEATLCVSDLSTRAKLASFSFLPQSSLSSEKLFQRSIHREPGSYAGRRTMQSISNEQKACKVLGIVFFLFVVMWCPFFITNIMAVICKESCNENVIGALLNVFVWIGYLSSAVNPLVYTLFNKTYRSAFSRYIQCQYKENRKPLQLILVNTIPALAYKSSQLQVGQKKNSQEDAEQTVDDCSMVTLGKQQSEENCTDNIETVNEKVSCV
T1 sequence (P14842 whole entry): as above

Compound | Ki [1] | IC50 [2]
CN(C)CCOc1ccccc1CCc1ccccc1 [Compound No. 1] | 6.33 nM | 96.2 nM
CN(C)CCCOc1ccccc1CCc1ccccc1 [Compound No. 2] | 4.55 nM | 33.8 nM
CN(C)CCCCOc1ccccc1CCc1ccccc1 [compound 3] | 9.78 nM | 115 nM
CN(C)CCCCCOc1ccccc1CCc1ccccc1 [compound 4] | 37.6 nM | 377 nM
CN(C)CCCCCCOc1ccccc1CCc1ccccc1 [compound 5] | 74.9 nM | 152 nM
CNCCCCOc1ccccc1CCc1ccccc1 [compound 6] | 70.6 nM | 156 nM
NCCCCOc1ccccc1CCc1ccccc1 [compound 7] | 280 nM | –
c1ccc(CCc2ccccc2OCCCCN2CCCCC2)cc1 [compound 8] | 67.6 nM | –
O=C(O)C1CCN(CCCCOc2ccccc2CCc2ccccc2)CC1 [compound 9] | 198 nM | –
CN(C)CCCCOc1cccc(CCc2ccccc2)c1 [compound 10] | 517 nM | –
CN(C)CCCCOc1ccc(CCc2ccccc2)cc1 [compound 11] | 416 nM | –
COc1cccc(CCc2ccccc2OCCCCN(C)C)c1 [compound 12] | 13.1 nM | –
CN(C)CCCOc1ccccc1CCc1ccc(N(C)C)cc1 [compound 13] | 23.3 nM | –
COc1cccc(CCc2ccccc2OCC(CN(C)C)OC(=O)CCC(=O)O)c1 (stereo not drawn) [compound 14] | 17.8 nM | –
COc1cccc(CCc2ccccc2OCC(O)CN(C)C)c1 (stereo not drawn) [compound 15] | 1.16 nM | –
COc1cccc(CCc2ccccc2OCC(CN(C)C)OCCC(=O)O)c1 (stereo not drawn) [compound 16] | 1.05 nM | –
CN(C)CC(COc1ccccc1CCc1cccc(F)c1)OC(=O)CCC(=O)O (stereo not drawn) [compound 17] | 41.3 nM | –
CN(C)CC(O)COc1ccccc1CCc1ccccc1 (stereo not drawn) [compound 18] | 13.9 nM | –
CN(C)CCCCOc1ccccc1CCc1cccc(Cl)c1 [compound 19] | 13.5 nM | –
CN(C)CCCCOc1ccc(Cl)cc1CCc1ccccc1 [compound 20] | 25.7 nM | –
COc1cccc(CCc2ccccc2)c1OCCCCN(C)C [compound 21] | 85.7 nM | –
